For 23 compounds, CC50 and inhibition results are on record in US9540343B2 (Gilead Sciences, Inc., priority 2011, dated 2017).

The nature of one data set: in vitro. In short, it runs like this: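 Cytoprotection read-out: CellTiter-Glo chemiluminescence after 5 days at 37 °C of HIV-IIIb-infected MT-4 cells (m.o.i. 0.003) with compound in 10-point 3-fold dilutions, quadruplicate, 10% FBS. Cytotoxicity (CC50) measured identically without virus.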
Another data set relates to HIV-IIIb. Put plainly: Test A: Antiviral assay in MT4 cells. The format is cell-based, HIV-1. The note with it: Human immunodeficiency virus 1, IIIB, MT4, 120 h, read-out: % inhibition at 2 μM, percent inhibition of virus-induced cell killing, from dose response curve at 2 uM drug; MT-4 cells infected with HIV-IIIb, 5 days, CellTiter-Glo. (In general: In ATP-based viability assays light output follows the ATP content of the culture.)

Where [1] appears, read: human, uninfected MT-4 cells, CC50 (nM), same protocol as Test A, CellTiter-Glo.

In “in vitro” (setting [1]), `Cc1ccccc1-c1ccnc(C(Cc2cc(F)cc(F)c2)NC(=O)Cc2c[nH]c3ccc(O)cc23)n1` (stereo not shown) [Example 11, N-(2-(3,5-difluorophenyl)-1-(4-o-tolylpyrimidin-2-yl)ethyl)-2-(5-hydroxy-1H-indol-3-yl)acetamide] returned a CC50 at 5 days of 35700 nM. Besides, the inhibition at 2 µM in the data set with HIV-IIIb was found to be 0%.
`Cc1ccccc1-c1cccnc1[C@H](Cc1cc(F)cc(F)c1)NC(=O)Cc1c[nH]c2ccc(O)cc12` [Example 26, (S)—N-(2-(3,5-difluorophenyl)-1-(3-o-tolylpyridin-2-yl)ethyl)-2-(5-hydroxy-1H-indol-3-yl)acetamide] returned a CC50 at 5 days in the data set “in vitro” (setting [1]) of 24500 nM. Moreover, the inhibition at 2 µM in the data set on HIV-IIIb is 70%.
Taken in the same sequence, the figures for `NC(=O)c1cc(-c2cccnc2[C@H](Cc2cc(F)cc(F)c2)NC(=O)Cn2nc(C(F)(F)F)c3c2CCC=C3)ccc1F` [Example 339B, (S)-5-(2-(2-(3,5-difluorophenyl)-1-(2-(3-(trifluoromethyl)-6,7-dihydro-1H-indazol-1-yl)acetamido)ethyl)pyridin-3-yl)-2-fluorobenzamide] were 19400 nM and 53%.
The corresponding values for `NC(=O)c1cc(-c2cccnc2[C@H](Cc2cc(F)cc(F)c2)NC(=O)Cn2nc(C(F)(F)F)c3c2CC(=O)CC3)ccc1F` [Example 322, (S)-5-(2-(2-(3,5-difluorophenyl)-1-(2-(6-oxo-3-(trifluoromethyl)-4,5,6,7-tetrahydro-1H-indazol-1-yl)acetamido)ethyl)pyridin-3-yl)-2-fluorobenzamide] are 37100 nM and 10%.
As to `NC(=O)c1cc(-c2cccnc2[C@H](Cc2cc(F)cc(F)c2)NC(=O)Cn2nc(C(F)(F)F)c3c2CNC3)ccc1F` [Example 251, (S)-5-(2-(2-(3,5-difluorophenyl)-1-(2-(3-(trifluoromethyl)-5,6-dihydropyrrolo[3,4-c]pyrazol-1(4H)-yl)acetamido)ethyl)pyridin-3-yl)-2-fluorobenzamide], the CC50 at 5 days in “in vitro” (setting [1]) is > 53200 nM. In the data set with HIV-IIIb, the inhibition at 2 µM stood at 1%.
Taken in the same sequence, the figures for `O=C(Cn1nc(C(F)F)c2c1C(F)(F)C1CC21)N[C@@H](Cc1cc(F)cc(F)c1)c1ncccc1-c1ccc(OC(F)(F)F)cc1` (stereo partly drawn) [Example 230, 2-(3-(difluoromethyl)-5,5-difluoro-3b,4,4a,5-tetrahydro-1H-cyclopropa[3,4]cyclopenta[1,2-c]pyrazol-1-yl)-N—((S)-2-(3,5-difluorophenyl)-1-(3-(4-(trifluoromethoxy)phenyl)pyridin-2-yl)ethyl)acetamide] were 14000 nM and 66%.
The corresponding values for `NC(=O)c1cc(-c2cccnc2[C@H](Cc2cc(F)cc(F)c2)NC(=O)Cn2nc(C(F)F)c3c2C(=O)C2CC32)ccc1F` (stereo partly drawn) [Example 233B, 5-(2-((1S)-1-(2-(3-(difluoromethyl)-5-oxo-3b,4,4a,5-tetrahydro-1H-cyclopropa[3,4]cyclopenta[1,2-c]pyrazol-1-yl)acetamido)-2-(3,5-difluorophenyl)ethyl)pyridin-3-yl)-2-fluorobenzamide] are 32200 nM and 5%.
Taken in the same sequence, the figures for `NC(=O)c1cc(-c2cccnc2[C@H](Cc2cc(F)cc(F)c2)NC(=O)Cn2nc(C(F)(F)F)cc2C2=CCCC2)ccc1F` [Example 130D, (S)-5-(2-(1-(2-(5-cyclopentenyl-3-(trifluoromethyl)-1H-pyrazol-1-yl)acetamido)-2-(3,5-difluorophenyl)ethyl)pyridin-3-yl)-2-fluorobenzamide] were 15800 nM and 39%.
In the data set “in vitro” (setting [1]), `O=C(Cc1c[nH]c2ccc(F)cc12)N[C@@H](Cc1cc(F)cc(F)c1)c1ncncc1-c1ccc(Cl)cc1` [Example 365, (S)—N-(1-(5-(4-chlorophenyl)pyrimidin-4-yl)-2-(3,5-difluorophenyl)ethyl)-2-(5-fluoro-1H-indol-3-yl)acetamide] registered a CC50 at 5 days of 12500 nM. Also, the inhibition at 2 µM in the data set with HIV-IIIb was 86%.
The corresponding values for `Cc1ccc2c(c1)NC(=O)C2CC(=O)N[C@@H](Cc1cc(F)cc(F)c1)c1ncccc1-c1ccc(F)c(C(N)=O)c1` (stereo partly drawn) [Example 255, 5-(2-((1S)-2-(3,5-difluorophenyl)-1-(2-(6-methyl-2-oxoindolin-3-yl)acetamido)ethyl)pyridin-3-yl)-2-fluorobenzamide] are > 53200 nM and 1%.
As to `O=C(Cc1c[nH]c2ccc(O)cc12)N[C@@H](Cc1cc(F)cc(F)c1)c1ncccc1Br` [Example 38D, (S)—N-(1-(3-bromopyridin-2-yl)-2-(3,5-difluorophenyl)ethyl)-2-(5-hydroxy-1H-indol-3-yl)acetamide], the CC50 at 5 days in the data set “in vitro” (setting [1]) is 42600 nM. Moreover, the inhibition at 2 µM in the data set with HIV-IIIb amounted to 3%.
In “in vitro” (setting [1]), `NC(=O)c1cccc(-c2cccnc2[C@H](Cc2cc(F)cc(F)c2)NC(=O)Cn2c(C(F)F)nc3ccccc32)c1` [Example 358, (S)-3-(2-(1-(2-(2-(difluoromethyl)-1H-benzo[d]imidazol-1-yl)acetamido)-2-(3,5-difluorophenyl)ethyl)pyridin-3-yl)benzamide] registered a CC50 at 5 days of 47400 nM. In addition, in the data set with HIV-IIIb, the inhibition at 2 µM was 20%.
As to `N#Cc1nn(CC(=O)N[C@@H](Cc2cc(F)cc(F)c2)c2ncccc2-c2ccc(F)c(C(N)=O)c2)cc1Br` [Example 359, (S)-5-(2-(1-(2-(4-bromo-3-cyano-1H-pyrazol-1-yl)acetamido)-2-(3,5-difluorophenyl)ethyl)pyridin-3-yl)-2-fluorobenzamide], the CC50 at 5 days in “in vitro” (setting [1]) is 25300 nM. Besides, in the data set with HIV-IIIb, the inhibition at 2 µM amounted to 2%.
Taken in the same sequence, the figures for `NS(=O)(=O)c1cccc(-c2cncnc2[C@H](Cc2cc(F)cc(F)c2)NC(=O)Cc2c[nH]c3ccc(O)cc23)c1` [Example 295B, (S)—N-(2-(3,5-difluorophenyl)-1-(5-(3-sulfamoylphenyl)pyrimidin-4-yl)ethyl)-2-(5-hydroxy-1H-indol-3-yl)acetamide] were > 53200 nM and 99%.
As for `NC(=O)c1cc(-c2cccnc2[C@H](Cc2cc(F)cc(F)c2)NC(=O)Cc2n[nH]c3ccc(C(F)(F)F)cc23)ccc1F` [Example 141G, (S)-5-(2-(2-(3,5-difluorophenyl)-1-(2-(5-(trifluoromethyl)-1H-indazol-3-yl)acetamido)ethyl)pyridin-3-yl)-2-fluorobenzamide], it took 21800 nM to reach half-maximal cytotoxicity in “in vitro” (setting [1]) (CC50 at 5 days). The inhibition at 2 µM in the data set with HIV-IIIb came out at 4%.
With `NC(=O)c1cc(-c2cccnc2[C@H](Cc2cc(F)cc(F)c2)NC(=O)Cn2c3c(c4ccccc42)C(=O)CCC3)ccc1F` [Example 574D, (S)-5-(2-(2-(3,5-difluorophenyl)-1-(2-(4-oxo-3,4-dihydro-1H-carbazol-9(2H)-yl)acetamido)ethyl)pyridin-3-yl)-2-fluorobenzamide], in “in vitro” (human, CC50 (nM), uninfected MT-4 cells, same protocol as Test A, CellTiter-Glo), the CC50 at 5 days was determined as 52500 nM. In the data set with HIV-IIIb, the inhibition at 2 µM worked out at 24%.
As for `NC(=O)c1cccc(-c2cccnc2[C@H](Cc2cc(F)cc(F)c2)NC(=O)Cn2ccc3ccc(=O)[nH]c32)c1` [Example 298C, (S)-3-(2-(2-(3,5-difluorophenyl)-1-(2-(6-oxo-6,7-dihydro-1H-pyrrolo[2,3-b]pyridin-1-yl)acetamido)ethyl)pyridin-3-yl)benzamide], the CC50 at 5 days in “in vitro” (setting [1]) was > 53000 nM. Further, in the data set on HIV-IIIb, the inhibition at 2 µM turned out to be 61%.
In turn, `Cc1c(C#N)c(C(F)(F)F)nn1CC(=O)N[C@@H](Cc1cc(F)cc(F)c1)c1ncccc1-c1ccc(N(C)C)c(C(N)=O)c1` [Example 372, (S)-5-(2-(1-(2-(4-cyano-5-methyl-3-(trifluoromethyl)-1H-pyrazol-1-yl)acetamido)-2-(3,5-difluorophenyl)ethyl)pyridin-3-yl)-2-(dimethylamino)benzamide] returned a CC50 at 5 days in the data set “in vitro” (setting [1]) of 24000 nM. Further, the inhibition at 2 µM in the data set on HIV-IIIb was found to be 0%.
Consider `O=C(Cn1nc(C(F)F)cc1C(F)F)N[C@@H](Cc1cc(F)cc(F)c1)c1ccccn1` [Example 528, (S)-2-(3,5-bis(difluoromethyl)-1H-pyrazol-1-yl)-N-(2-(3,5-difluorophenyl)-1-(pyridin-2-yl)ethyl)acetamide], for which, in the data set “in vitro” (setting [1]), the CC50 at 5 days is > 53200 nM. Further, in the data set on HIV-IIIb, the inhibition at 2 µM was determined as 0%.
Taken in the same sequence, the figures for `Cn1ncc2ccc(-c3cccnc3[C@H](Cc3cc(F)cc(F)c3)NC(=O)Cn3nc(C(F)F)c4c3C(F)(F)C3CC43)cc21` (stereo partly drawn) [Example 73, (S)—N-(1-(3-(1-methylindazole-6-yl)-pyridin-2-yl)-2-(3,5-difluorophenyl)ethyl)-2-(3-(difluoromethyl)-5,6-dihydro-4,5-(methano)-6,6-difluoro-cyclopenta[c]pyrazol-1(4H)-yl)acetamide] were 9790 nM and 15%.
Taken in the same sequence, the figures for `O=C(Cn1nc(C(F)F)cc1C(F)F)N[C@@H](Cc1cc(F)cc(F)c1)c1ncccc1-c1cnc2[nH]ccc2c1` [Example 512C, (S)—N-(1-(3-(1H-pyrrolo[2,3-b]pyridin-5-yl)pyridin-2-yl)-2-(3,5-difluorophenyl)ethyl)-2-(3,5-bis(difluoromethyl)-1H-pyrazol-1-yl)acetamide] were 19900 nM and 60%.
Taken in the same sequence, the figures for `NC(=O)c1cc(-c2cccnc2[C@H](Cc2cc(F)cc(F)c2)NC(=O)Cn2cc(C3=CCCC3)c(C(F)(F)F)n2)ccc1F` [Example 355, (S)-5-(2-(1-(2-(4-cyclopentenyl-3-(trifluoromethyl)-1H-pyrazol-1-yl)acetamido)-2-(3,5-difluorophenyl)ethyl)pyridin-3-yl)-2-fluorobenzamide] were 9460 nM and 1%.
As to `N#Cc1nn(CC(=O)N[C@@H](Cc2cc(F)cc(F)c2)c2ncccc2-c2ccc(F)c(C(N)=O)c2)c2c1CCC2` [Example 211C, (S)-5-(2-(1-(2-(3-cyano-5,6-dihydrocyclopenta[c]pyrazol-1(4H)-yl)acetamido)-2-(3,5-difluorophenyl)ethyl)pyridin-3-yl)-2-fluorobenzamide], in “in vitro” (setting [1]), the CC50 at 5 days worked out at 36100 nM. Further, the inhibition at 2 µM with HIV-IIIb was 83%.

One may read the CC50 as the concentration at which the toxic effect on the cells reaches its halfway point. A low value points to greater toxicity to the cells. As usually defined, the inhibition is the relative decrease from the control value, in per cent.
